Holding throughout (format): biochemical
In one test the target is Bovine LOX (Bos taurus (Bovine), UniProt P33072). Briefly: LOX inhibition, peroxidase-coupled Amplex Red amine oxidase assay. The following applies: 30 min preincubation at 37° C., putrescine substrate. From the text:
(§1) Method to Determine the Ability of Compounds of the Invention to Inhibit LOX and LOXL1-4 from Different Sources
Lysyl oxidase (LOX) is an extracellular copper dependent enzyme which oxidizes peptidyl lysine and hydroxylysine residues in collagen and lysine residues in elastin to produce peptidyl alpha-aminoadipic-delta-semialdehydes. […] There are five LOX family members; these are LOX, LOXL1, LOXL2, LOXL3 and LOXL4. LOX and LOXL family members can be acquired as recombinant active proteins from commercial sources, or extracted from animal tissues like bovine aorta, tendons, pig skin; or prepared from cell cultures. The inhibitory effects of the compounds of the present invention were tested against the given LOX-LOXL preparation using a high-throughput coupled colorimetric method (Holt A. and Palcic M., A peroxidase-coupled continuous absorbance plate-reader assay for flavin monoamine oxidases, copper-containing amine oxidases and related enzymes. Nat. Protoc. 2006; 1: 2498-2505). The assay was developed using either 384 or 96 well format. Briefly, in a standard 384 well plate assay 25 μL of a dilution of any of the isoenzymes and orthologues in 1.2 M urea, 50 mM sodium borate buffer (pH 8.2) were added into each well in the presence of 1 μM mofegiline and 0.5 mM pargyline (to inhibit SSAO and MAO-B and MAO-A, respectively). […] of a reaction mixture containing twice the KM concentration of putrescine (Sigma Aldrich, e.g. 20 mM for LOX, or 10 mM for LOXL2 and LOXL3), 120 μM Amplex Red (Sigma Aldrich) and 1.5 U/mL horseradish peroxidase (Sigma Aldrich) prepared in 1.2 M urea, 50 mM sodium borate buffer (pH 8.2) were then added to the corresponding wells. The above volumes were doubled in the case of 96 wells plate. The fluorescence (RFU) was read every 2.5 min for 30 min at a range of temperatures from 37° to 45° C., excitation 565 nm and emission 590 (Optima; BMG labtech). The slope of the kinetics for each well was calculated using MARS data analysis software (BMG labtech) and this value was used to deduce the IC50 value (Dotmatics).

The target of the next test is Human LOXL2 (Homo sapiens (Human), UniProt Q9Y4K0). As to the kind of experiment: LOXL2 inhibition, peroxidase-coupled Amplex Red amine oxidase assay. The following applies: 30 min preincubation at 37° C., putrescine substrate.
Sequence of Human LOXL2 (Q9Y4K0 26-774): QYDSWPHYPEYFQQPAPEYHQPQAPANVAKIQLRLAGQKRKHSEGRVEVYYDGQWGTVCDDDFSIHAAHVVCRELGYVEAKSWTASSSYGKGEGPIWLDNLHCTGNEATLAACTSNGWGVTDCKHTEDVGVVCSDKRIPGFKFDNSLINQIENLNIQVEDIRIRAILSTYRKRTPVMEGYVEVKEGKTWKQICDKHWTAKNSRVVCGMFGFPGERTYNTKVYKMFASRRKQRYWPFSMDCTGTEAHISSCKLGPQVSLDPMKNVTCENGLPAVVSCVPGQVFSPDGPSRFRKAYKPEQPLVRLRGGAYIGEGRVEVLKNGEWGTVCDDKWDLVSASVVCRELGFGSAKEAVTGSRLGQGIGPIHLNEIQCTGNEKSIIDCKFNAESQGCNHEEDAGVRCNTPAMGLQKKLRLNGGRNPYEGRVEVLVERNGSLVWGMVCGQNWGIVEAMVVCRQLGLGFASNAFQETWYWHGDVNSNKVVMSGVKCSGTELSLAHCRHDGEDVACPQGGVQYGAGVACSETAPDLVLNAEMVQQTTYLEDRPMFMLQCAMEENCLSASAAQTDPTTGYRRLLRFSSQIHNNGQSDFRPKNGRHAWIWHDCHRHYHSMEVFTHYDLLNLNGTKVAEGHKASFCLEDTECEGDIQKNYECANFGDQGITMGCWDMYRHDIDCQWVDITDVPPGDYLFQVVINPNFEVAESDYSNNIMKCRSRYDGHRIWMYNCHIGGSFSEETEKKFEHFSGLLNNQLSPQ
Text: as §1
Lysyl oxidase (LOX) is an extracellular copper dependent enzyme which oxidizes peptidyl lysine and hydroxylysine residues in collagen and lysine residues in elastin to produce peptidyl alpha-aminoadipic-delta-semialdehydes. […] There are five LOX family members; these are LOX, LOXL1, LOXL2, LOXL3 and LOXL4. LOX and LOXL family members can be acquired as recombinant active proteins from commercial sources, or extracted from animal tissues like bovine aorta, tendons, pig skin; or prepared from cell cultures. The inhibitory effects of the compounds of the present invention were tested against the given LOX-LOXL preparation using a high-throughput coupled colorimetric method (Holt A. and Palcic M., A peroxidase-coupled continuous absorbance plate-reader assay for flavin monoamine oxidases, copper-containing amine oxidases and related enzymes. Nat. Protoc. 2006; 1: 2498-2505). The assay was developed using either 384 or 96 well format. Briefly, in a standard 384 well plate assay 25 μL of a dilution of any of the isoenzymes and orthologues in 1.2 M urea, 50 mM sodium borate buffer (pH 8.2) were added into each well in the presence of 1 μM mofegiline and 0.5 mM pargyline (to inhibit SSAO and MAO-B and MAO-A, respectively). Test compounds were dissolved in DMSO and tested in a Concentration Response Curve (CRC) with 11 data points, typically in the micromolar or nanomolar range after incubation with the enzyme for 30 min at 37° C. Twenty five L of a reaction mixture containing twice the KM concentration of putrescine (Sigma Aldrich, e.g. 20 mM for LOX, or 10 mM for LOXL2 and LOXL3), 120 μM Amplex Red (Sigma Aldrich) and 1.5 U/mL horseradish peroxidase (Sigma Aldrich) prepared in 1.2 M urea, 50 mM sodium borate buffer (pH 8.2) were then added to the corresponding wells. The above volumes were doubled in the case of 96 wells plate. The fluorescence (RFU) was read every 2.5 min for 30 min at a range of temperatures from 37° to 45° C., excitation 565 nm and emission 590 (Optima; BMG labtech). The slope of the kinetics for each well was calculated using MARS data analysis software (BMG labtech) and this value was used to deduce the IC50 value (Dotmatics).

In test [1] the target is human recombinant SSAO/VAP-1 (Homo sapiens (Human), UniProt Q16853). Briefly: Inhibition of human recombinant SSAO/VAP-1 amine oxidase activity. The following applies: 30 min preincubation at 37° C., 600 μM benzylamine. As for the experimental part: Method to Determine the Ability of Compounds of Formula I to Inhibit Human Recombinant SSAO/VAP-1
Sequence of human recombinant SSAO/VAP-1 (Q16853 34-763): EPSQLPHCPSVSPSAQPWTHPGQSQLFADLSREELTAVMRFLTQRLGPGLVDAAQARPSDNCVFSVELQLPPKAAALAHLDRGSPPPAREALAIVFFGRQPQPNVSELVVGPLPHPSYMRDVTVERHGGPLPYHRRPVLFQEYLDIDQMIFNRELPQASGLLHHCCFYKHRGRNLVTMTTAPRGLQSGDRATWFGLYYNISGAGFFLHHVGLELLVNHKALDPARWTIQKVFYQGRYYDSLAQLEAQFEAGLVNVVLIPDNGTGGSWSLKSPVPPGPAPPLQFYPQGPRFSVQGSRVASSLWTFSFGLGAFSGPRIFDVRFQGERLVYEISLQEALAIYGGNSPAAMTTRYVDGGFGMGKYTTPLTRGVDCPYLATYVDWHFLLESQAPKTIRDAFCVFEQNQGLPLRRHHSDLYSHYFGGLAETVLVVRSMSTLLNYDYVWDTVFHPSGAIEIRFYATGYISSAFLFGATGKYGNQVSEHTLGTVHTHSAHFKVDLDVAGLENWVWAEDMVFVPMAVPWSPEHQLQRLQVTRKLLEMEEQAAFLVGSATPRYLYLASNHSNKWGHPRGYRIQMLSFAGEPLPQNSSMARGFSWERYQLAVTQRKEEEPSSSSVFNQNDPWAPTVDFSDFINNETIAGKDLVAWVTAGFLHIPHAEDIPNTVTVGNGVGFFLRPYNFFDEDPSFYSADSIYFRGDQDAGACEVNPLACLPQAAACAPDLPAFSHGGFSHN
Human recombinant SSAO/VAP-1 amine oxidase activity was determined using the coupled colorimetric method as described for monoamine oxidase, copper-containing amine oxidases and related enzymes (Holt A. and Palcic M., A peroxidase-coupled continuous absorbance plate-reader assay for flavin monoamine oxidases, copper-containing amine oxidases and related enzymes. Nat Protoc 2006; 1: 2498-2505). Briefly, a cloned cDNA template corresponding to residues 34-763 of human SSAO/VAP-1, and incorporating a mouse Ig kappa (κ) signal sequence, N-terminal flag epitope tag and tobacco etch virus (TEV) cleavage site, was assembled in a mammalian expression vector (pLO-CMV) by Geneart AG. This vector containing human SSAO/VAP-1 residues was transfected into CHO-K1 glycosylation mutant cell line, Lec 8. A clone stably expressing human SSAO/VAP-1 was isolated and cultured in large scale. Active human SSAO/VAP-1 was purified and recovered using immunoaffinity chromatography. This was used as the source for SSAO/VAP-1 activity. A high-throughput colorimetric assay was developed using either 96 or 384 well format. Briefly, in a standard 96 well plate assay 50 μL of purified human SSAO/VAP-1 (0.25 μg/mL) in 0.1 M sodium phosphate buffer (pH 7.4) was added into each well. Test compounds were dissolved in DMSO and tested in a Concentration Response Curve (CRC) with 4-11 data points, typically in the micromolar or nanomolar range after incubation with human SSAO/VAP-1 for 30 min at 37° C. After 30 min incubation, 50 μL of the reaction mixture containing 600 μM benzylamine (Sigma Aldrich), 120 μM Amplex Red (Sigma Aldrich) and 1.5 U/mL horseradish peroxidase (Sigma Aldrich) prepared in 0.1 M sodium phosphate buffer (pH 7.4) were added to the corresponding well. The fluorescence unit (RFU) was read every 2.5 min for 30 min at 37° C. excitation 565 nm and emission 590 (Optima; BMG labtech). The slope of the kinetics for each well was calculated using MARS data analysis software (BMG labtech) and this value was used to deduce the IC50 value (Dotmatics).

The target of another test is Recombinant human MAO-B (Homo sapiens (Human), UniProt P27338). Briefly: Inhibition of human recombinant MAO-B. The following applies: benzylamine 100 μM. As for the experimental part: Method to Determine the Ability of Compounds of Formula I to Inhibit Human Recombinant MAO-B
Sequence of Recombinant human MAO-B (P27338 whole entry): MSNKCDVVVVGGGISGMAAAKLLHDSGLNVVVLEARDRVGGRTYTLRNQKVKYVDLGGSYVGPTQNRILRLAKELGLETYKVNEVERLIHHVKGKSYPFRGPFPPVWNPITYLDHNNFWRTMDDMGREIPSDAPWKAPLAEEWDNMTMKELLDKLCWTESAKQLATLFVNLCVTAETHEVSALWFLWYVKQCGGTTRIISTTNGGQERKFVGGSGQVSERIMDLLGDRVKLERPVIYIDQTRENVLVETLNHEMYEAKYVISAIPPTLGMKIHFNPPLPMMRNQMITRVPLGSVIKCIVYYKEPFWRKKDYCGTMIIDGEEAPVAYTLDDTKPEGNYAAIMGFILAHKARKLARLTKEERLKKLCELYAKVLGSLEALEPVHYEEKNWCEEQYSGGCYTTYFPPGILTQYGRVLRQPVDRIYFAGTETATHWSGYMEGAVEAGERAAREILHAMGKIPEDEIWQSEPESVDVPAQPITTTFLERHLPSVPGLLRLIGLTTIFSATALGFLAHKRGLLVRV
The specificity of the compounds of this invention was tested by determining their ability to inhibit MAO-B activities in vitro. Recombinant human MAO-B (0.06 mg/mL; Sigma Aldrich) was used as source of MAO-B enzyme activities. The assay was performed in a similar way as for human SSAO/VAP-1 (Example 66) except, the substrate benzylamine was used at 100 μM.

Molecules are shown by their SMILES. Counter-ions that a name gives are not always drawn. Some results are limits rather than exact numbers.

Sequence of Bovine LOX (P33072 170-418): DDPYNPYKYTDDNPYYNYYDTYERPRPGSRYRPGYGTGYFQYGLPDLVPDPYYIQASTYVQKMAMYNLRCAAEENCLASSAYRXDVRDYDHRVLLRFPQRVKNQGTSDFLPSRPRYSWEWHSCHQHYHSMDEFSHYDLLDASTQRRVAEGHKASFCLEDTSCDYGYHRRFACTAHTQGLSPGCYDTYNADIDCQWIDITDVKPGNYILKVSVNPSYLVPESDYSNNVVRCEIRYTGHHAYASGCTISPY

In the case of `Cc1c(-c2cccc(S(=O)(=O)N(C)C)c2)c2ccc(C(=O)O)cc2n1C/C(F)=C/CN` [Compound 9, (Z)-1-(4-amino-2-fluorobut-2-en-1-yl)-3-(3-(N,N-dimethylsulfamoyl)phenyl)-2-methyl-1H-indole-6-carboxylic acid], the IC50 against Bovine LOX is more than 0.3 µM; against Human LOXL2 it was less than 0.3 µM; in test [1] it was more than 3 µM; on Recombinant human MAO-B, more than 3 µM.
Take `Cc1c(-c2cccc(S(=O)(=O)N(C)C)c2)c2ccc(C(=O)N(C)C)cc2n1C/C(F)=C/CN` [Compound 10, (Z)-1-(4-amino-2-fluorobut-2-en-1-yl)-3-(3-(N,N-dimethylsulfamoyl)phenyl)-N,N,2-trimethyl-1H-indole-6-carboxamide]: the IC50 against Bovine LOX was more than 0.3 µM; at Human LOXL2, less than 0.3 µM; in test [1] it was more than 3 µM; at Recombinant human MAO-B it was more than 3 µM.
`Cc1c(-c2cccc(S(=O)(=O)N(C)C)c2)c2ccc(C(N)=O)cc2n1C/C(F)=C/CN` [Compound 11, (Z)-1-(4-amino-2-fluorobut-2-en-1-yl)-3-(3-(N,N-dimethylsulfamoyl)phenyl)-2-methyl-1H-indole-6-carboxamide]: the IC50 against Bovine LOX was more than 0.3 µM; against Human LOXL2 it was less than 0.3 µM; in test [1] it was more than 3 µM; on Recombinant human MAO-B, more than 3 µM.
In the case of `Cc1c(-c2c(C)n(C/C(F)=C/CN)c3ccc(C(=O)O)cc23)cccc1S(=O)(=O)N(C)C` [Compound 13, (Z)-1-(4-amino-2-fluorobut-2-en-1-yl)-3-(3-(N,N-dimethylsulfamoyl)-2-methylphenyl)-2-methyl-1H-indole-5-carboxylic acid], the IC50 against Bovine LOX was more than 0.3 µM; at Human LOXL2 it was less than 0.3 µM; in test [1] it was more than 3 µM; on Recombinant human MAO-B, more than 3 µM.
For `Cc1c(-c2cccc(S(C)(=O)=O)c2)c2cc(C(=O)O)ccc2n1C/C(F)=C/CN` [Compound 14, (Z)-1-(4-amino-2-fluorobut-2-en-1-yl)-2-methyl-3-(3-(methylsulfonyl)phenyl)-1H-indole-5-carboxylic acid], the IC50 against Bovine LOX was more than 0.3 µM; against Human LOXL2, less than 0.3 µM; in test [1], more than 3 µM; on Recombinant human MAO-B it was more than 3 µM.
Consider `CCOC(=O)c1ccc2c(c1)c(-c1cccc(C(=O)N(C)C)c1)c(C)n2C/C(F)=C/CN` [Compound 15, (Z)-ethyl 1-(4-amino-2-fluorobut-2-en-1-yl)-3-(3-(dimethylcarbamoyl)phenyl)-2-methyl-1H-indole-5-carboxylate Hydrochloride], for which the concentration for half-maximal inhibition (IC50) was more than 0.3 µM against Bovine LOX, less than 0.3 µM against Human LOXL2, more than 3 µM in test [1] and more than 3 µM on Recombinant human MAO-B.
Consider `Cc1c(-c2cccc(C(=O)N(C)C)c2)c2cc(C(=O)O)ccc2n1C/C(F)=C/CN` [Compound 16, (Z)-1-(4-amino-2-fluorobut-2-en-1-yl)-3-(3-(dimethylcarbamoyl)phenyl)-2-methyl-1H-indole-5-carboxylic Acid Hydrochloride], for which the IC50 against Bovine LOX was more than 0.3 µM; at Human LOXL2, less than 0.3 µM; in test [1] it was more than 3 µM; at Recombinant human MAO-B, more than 3 µM.
On to `CCOC(=O)c1ccc2c(c1)c(-c1cccc(S(C)(=O)=O)c1)c(C)n2C/C(F)=C/CN` [Compound 17, (Z)-ethyl 1-(4-amino-2-fluorobut-2-en-1-yl)-2-methyl-3-(3-(methylsulfonyl)phenyl)-1H-indole-5-carboxylate], for which the IC50 was more than 0.3 µM against Bovine LOX, less than 0.3 µM on Human LOXL2, more than 3 µM in test [1] and more than 3 µM on Recombinant human MAO-B.
`CNS(=O)(=O)c1cccc(-c2c(C)n(C/C(F)=C/CN)c3ccc(C(=O)O)cc23)c1` [Compound 18, (Z)-1-(4-amino-2-fluorobut-2-en-l-yl)-2-methyl-3-(3-(N-methylsulfamoyl)phenyl)-1H-indole-5-carboxylic acid, Hydrochloride]: the IC50 on Bovine LOX is more than 0.3 µM; on Human LOXL2 it was less than 0.3 µM; in test [1], more than 3 µM; at Recombinant human MAO-B, more than 3 µM.
On to `CCOC(=O)c1ccc2c(c1)c(-c1cc(S(=O)(=O)N(C)C)ccc1C)c(C)n2C/C(F)=C/CN` [Compound 19, (Z)-ethyl 1-(4-amino-2-fluorobut-2-en-1-yl)-3-(5-(N,N-dimethylsulfamoyl)-2-methylphenyl)-2-methyl-1H-indole-5-carboxylate], for which the IC50 against Bovine LOX was more than 0.3 µM; on Human LOXL2, less than 0.3 µM; in test [1], more than 3 µM; on Recombinant human MAO-B it was more than 3 µM.
For `Cc1ccc(S(=O)(=O)N(C)C)cc1-c1c(C)n(C/C(F)=C/CN)c2ccc(C(=O)O)cc12` [Compound 20, (Z)-1-(4-amino-2-fluorobut-2-en-1-yl)-3-(5-(N,N-dimethylsulfamoyl)-2-methylphenyl)-2-methyl-1H-indole-5-carboxylic acid], the IC50 against Bovine LOX is more than 0.3 µM; against Human LOXL2, less than 0.3 µM; in test [1] it was more than 3 µM; on Recombinant human MAO-B it was more than 3 µM.
Consider `Cc1c(-c2cccc(S(=O)(=O)N(C)C)c2)c2cc(C(=O)O)c(F)cc2n1C/C(F)=C/CN` [Compound 21, (Z)-1-(4-amino-2-fluorobut-2-en-1-yl)-3-(3-(N,N-dimethylsulfamoyl)phenyl)-6-fluoro-2-methyl-1H-indole-5-carboxylic acid], for which the IC50 at Bovine LOX was more than 0.3 µM; on Human LOXL2 it was less than 0.3 µM; in test [1], more than 3 µM; on Recombinant human MAO-B it was more than 3 µM.

The term IC50 denotes the midpoint of a concentration-inhibition curve.

Values taken from patent US10717733B2, “Haloallylamine indole and azaindole derivative inhibitors of lysyl oxidases and uses thereof” (PHARMAXIS LTD., priority 2016, dated 2020).
